Counter-ions that a name gives are not always drawn. Like-named read-outs stand apart in the source and are kept apart here.
What was measured:
Experiment in all cases: Post-emergence efficacy, glasshouse, evaluated after 13 days
Assay type in all cases: in vivo
[1] = system: Amaranthus palmeri (AMAPA); conditions: Amaranthus palmeri, 312 h, read-out: Control of weed species AMAPA (100=total damage to plant; 0=no damage to plant)
Protocol: (§1) Seeds of a variety of test species were sown in standard soil in pots. After cultivation for 14 days (post-emergence) under controlled conditions in a glasshouse (at 24/16° C., day/night; 14 hours light; 65% humidity), the plants were sprayed with an aqueous spray solution derived from the dissolution of the technical active ingredient formula (I) in a small amount of acetone and a special solvent and emulsifier mixture referred to as IF50 (11.12% Emulsogen EL360 TM+44.44% N-methylpyrrolidone+44.44% Dowanol DPM glycol ether), to create a 50 g/l solution which was then diluted to required concentration using 0.25% or 1% Empicol ESC70 (Sodium lauryl ether sulphate)+1% ammonium sulphate as diluent.
(§2) The test plants were then grown in a glasshouse under controlled conditions (at 24/16° C., day/night; 14 hours light; 65% humidity) and watered twice daily. After 13 days the test was evaluated (100=total damage to plant; 0=no damage to plant).
(§3) Ipomoea hederacea (IPOHE), Euphorbia heterophylla (EPHHL), Chenopodium album (CHEAL), Amaranthus palmeri (AMAPA), Lolium perenne (LOLPE), Digitaria sanguinalis (DIGSA), Eleusine indica (ELEIN), Echinochloa crus-galli (ECHCG), Setaria faberi (SETFA)

Setaria faberi (SETFA) = conditions: Setaria faberi, 312 h, read-out: Control of weed species SETFA (100=total damage to plant; 0=no damage to plant)
Protocol: as §1, §2, §3

[2] = system: Ipomoea hederacea (IPOHE); conditions: Ipomoea hederacea, 312 h, read-out: Control of weed species IPOHE (100=total damage to plant; 0=no damage to plant)
Protocol: as §1, §2, §3

[3] = system: Echinochloa crus-galli (ECHCG); conditions: Echinochloa crus-galli, 312 h, read-out: Control of weed species ECHCG (100=total damage to plant; 0=no damage to plant)
Protocol: as §1, §2, §3

[4] = system: Chenopodium album (CHEAL); conditions: Chenopodium album, 312 h, read-out: Control of weed species CHEAL (100=total damage to plant; 0=no damage to plant)
Protocol: as §1, §2, §3

Eleusine indica (ELEIN) = conditions: Eleusine indica, 312 h, read-out: Control of weed species ELEIN (100=total damage to plant; 0=no damage to plant)
Protocol: as §1, §2, §3

[5] = system: Euphorbia heterophylla (EPHHL); conditions: Euphorbia heterophylla, 312 h, read-out: Control of weed species EPHHL (100=total damage to plant; 0=no damage to plant)
Protocol: as §1, §2, §3

Lolium perenne (LOLPE) = conditions: Lolium perenne, 312 h, read-out: Control of weed species LOLPE (100=total damage to plant; 0=no damage to plant)
Protocol: as §1, §2, §3

[6] = system: Digitaria sanguinalis (DIGSA); conditions: Digitaria sanguinalis, 312 h, read-out: Control of weed species DIGSA (100=total damage to plant; 0=no damage to plant)
Protocol: as §1, §2, §3

[7] = post-emergence application, 500 g/Ha, evaluated after 13 days

SMILES	pest or weed control at 500 g/ha [1, 7]	pest or weed control at 500 g/ha (Setaria faberi (SETFA); [7])	pest or weed control at 500 g/ha [2, 7]	pest or weed control at 500 g/ha [3, 7]	pest or weed control at 500 g/ha [4, 7]	pest or weed control at 500 g/ha (Eleusine indica (ELEIN); [7])	pest or weed control at 500 g/ha [5, 7]	pest or weed control at 500 g/ha (Lolium perenne (LOLPE); [7])	pest or weed control at 500 g/ha [6, 7]	pest or weed control at 500 g/ha ([1]; post-emergence)	pest or weed control at 500 g/ha (Setaria faberi (SETFA); post-emergence)	pest or weed control at 500 g/ha ([2]; post-emergence)	pest or weed control at 500 g/ha ([3]; post-emergence)	pest or weed control at 500 g/ha ([4]; post-emergence)	pest or weed control at 500 g/ha (Eleusine indica (ELEIN); post-emergence)	pest or weed control at 500 g/ha ([5]; post-emergence)	pest or weed control at 500 g/ha (Lolium perenne (LOLPE); post-emergence)	pest or weed control at 500 g/ha ([6]; post-emergence)
O=C(O)CC[n+]1ccc(C(=O)NCc2ccc(F)cc2)cn1 [Compound A22]	100%	50%	40%	50%	90%	60%	90%	40%	60%	–	–	–	–	–	–	–	–	–
O=C(NCc1ccc(F)cc1)c1cc[n+](CCS(=O)(=O)[O-])nc1 [Compound A23]	100%	70%	50%	70%	70%	60%	60%	20%	60%	–	–	–	–	–	–	–	–	–
O=C(O)CC[n+]1ccc(C(=O)N2CCCCC2)cn1 [Compound A24, 3-[4-(piperidine-1-carbonyl)pyridazin-1-ium-1-yl]propanoic acid trifluoroacetate]	–	–	–	–	–	–	–	–	–	100%	60%	30%	60%	90%	60%	90%	30%	70%
O=C(NCC1CC1)c1cc[n+](CCS(=O)(=O)[O-])nc1 [Compound A25]	100%	80%	60%	70%	90%	90%	80%	60%	80%	–	–	–	–	–	–	–	–	–
O=C(O)CC[n+]1ccc(C(=O)N2CCCC2)cn1 [Compound A26]	100%	100%	40%	90%	100%	80%	90%	90%	100%	–	–	–	–	–	–	–	–	–
O=C(c1cc[n+](CCS(=O)(=O)[O-])nc1)N1CCCCC1 [Compound A27]	70%	40%	30%	40%	40%	10%	70%	30%	40%	–	–	–	–	–	–	–	–	–
O=C(c1cc[n+](CCS(=O)(=O)[O-])nc1)N1CCOCC1 [Compound A28]	100%	70%	60%	50%	90%	70%	80%	60%	70%	–	–	–	–	–	–	–	–	–
O=C(O)CC[n+]1ccc(C(=O)N2CCOCC2)cn1 [Compound A29]	100%	90%	50%	90%	90%	90%	100%	50%	90%	–	–	–	–	–	–	–	–	–
O=C(NC1CC1)c1cc[n+](CCS(=O)(=O)[O-])nc1 [Compound A30]	100%	70%	70%	40%	100%	80%	70%	70%	70%	–	–	–	–	–	–	–	–	–
O=C(O)CC[n+]1ccc(C(=O)NC2CC2)cn1 [Compound A31]	100%	100%	30%	70%	100%	100%	100%	70%	100%	–	–	–	–	–	–	–	–	–
CC(C)N(C(=O)c1cc[n+](CCC(=O)O)nc1)C(C)C [Compound A32]	50%	30%	10%	30%	20%	10%	40%	10%	20%	–	–	–	–	–	–	–	–	–
O=C(O)CC[n+]1ccc(C(=O)Nc2ccccc2)cn1 [Compound A33]	100%	60%	30%	60%	80%	90%	50%	70%	60%	–	–	–	–	–	–	–	–	–
CC(C)N(C)C(=O)c1cc[n+](CCC(=O)O)nc1 [Compound A34]	100%	70%	20%	30%	40%	20%	70%	30%	70%	–	–	–	–	–	–	–	–	–
CC(C)CNC(=O)c1cc[n+](CCC(=O)O)nc1 [Compound A35]	100%	90%	50%	60%	90%	100%	100%	70%	80%	–	–	–	–	–	–	–	–	–
O=C(NCC(F)(F)F)c1cc[n+](CCS(=O)(=O)[O-])nc1 [Compound A36]	100%	60%	40%	30%	90%	60%	50%	20%	60%	–	–	–	–	–	–	–	–	–
CC(C)CNC(=O)c1cc[n+](CCS(=O)(=O)[O-])nc1 [Compound A37]	100%	70%	50%	50%	80%	60%	70%	50%	70%	–	–	–	–	–	–	–	–	–
